What was measured:
Erk1/2 phosphorylation = assay: Erk1/2 Phosphorylation Assay (western blot), Panc-1; format: cell-based, human; details: at 10 μM, * = activation
Experimental: Protocol for Western Erk1/2 Cell-Based Phosphorylation Assay
This assay is referred to as the “Erk1/2 Phosphorylation Assay” throughout this application.
(§1) Cell lines: Human tumor-derived pancreatic cancer cell line Panc-1 (expressing KRas G12D mutant) was purchased from American Type Culture Collection and grown in complete DMEM-High Glucose medium, supplemented with penicillin (100 U/mL), streptomycin (100 μg/mL), and 10% heat-inactivated FBS at 37° C. in a humidified incubator with 5% CO2.
(§2) Method 1: Cells were plated at 350000 cells/well density in a 12-well plate, allowed 3 hours to adhere to the plate, then starved in the appropriate medium in the presence of 0.5% FBS overnight. The small molecules to be tested were added to the cells in the final concentration of 10 μM in the presence of 0.3% DMSO for 6 hours incubation at 37° C. For IC50 value determination, serial dilutions of compounds were added to cells under the same conditions. Next, cells were stimulated with 1.5 ng/ml EGF for 15 minutes then cells were lysed with lysis buffer containing 1% Triton X-100, EDTA, and Halt™ Protease & Phosphatase Inhibitor Cocktail (Thermo Scientific). Protein concentration was assessed by BCA protein assay (Thermo Scientific). Phosphorylation level of Erk1/2 was determined by western blot.
(§3) Method 2: Cells were plated at 350000 cells/well density in a 12-well plate in 10% FBS. The next day small molecules to be tested were added to the cells in the final concentration of 10 μM in the presence of 0.3% DMSO for 6 hours incubation at 37° C. For IC50 value determination, serial dilutions of compounds were added to cells under the same conditions. Next, cells were lysed with lysis buffer containing 1% Triton X-100, EDTA, and Halt™ Protease & Phosphatase Inhibitor Cocktail (Thermo Scientific). Protein concentration was assessed by BCA protein assay (Thermo Scientific). Phosphorylation level of Erk1/2 was determined by western blot.
(§4) Western blot protocol: Equal amounts of protein (15-50 μg) were separated by SDS-PAGE and transferred to nitrocellulose membranes (Invitrogen by Thermo Fisher Scientific). The membrane was stained with Ponceau S Stain (Boston BioProducts) to verify uniform protein loading. Membranes were blocked with 10% milk and phosphorylation levels of Erk1/2 were assessed by incubating overnight at 4° C. with anti-phospho-p44/42 (Thr202/Tyr204) antibody (Cell Signaling) followed by HRP-conjugated secondary antibody (Jackson Immunoresearch, West Grove, PA). Bands were incubated in Amersham ECL Prime Western Blotting Detection Reagent (GE Healthcare) and visualized using the ChemiDoc MP imaging system (Bio-Rad).

Akt phosphorylation = assay: Akt Phosphorylation Assay (western blot), Panc-1; format: cell-based, human; details: at 10 μM, * = activation
Experimental: Protocol for Western Akt Cell-Based Phosphorylation Assay
This assay is referred to as the “Akt Phosphorylation Assay” throughout this application.
as §1, with “Human” for “Cell lines: Human”, “Glucose” for “Glucose medium,”
as §2, with “C.” for “C. For IC50 value determination, serial dilutions of compounds were added to cells under the same conditions.”, “Akt” for “Erk1/2”
as §3, with “Akt” for “Erk1/2”
as §4, with “Akt” for “Erk1/2”, “anti-phospho-Akt (Ser473)” for “anti-phospho-p44/42 (Thr202/Tyr204)”

IL6 = assay: IL-6 Quantification Assay (ELISA), LPS-stimulated RAW 264.7; format: cell-based; set-up: inhibition: dose or concentration left out as unconfirmed; details: Mus musculus, RAW264.7; read-out: IL-6: % inh.
TNF-alpha = TNF-alpha Quantification Assay (ELISA), LPS-stimulated RAW 264.7; format: cell-based; details: Mus musculus, RAW264.7; at 10 μM; read-out: TNFα: % inh.

Row | Structure (SMILES) | % inh of Erk1/2 phosphorylation in Panc-1 (Erk1/2 phosphorylation) | % inh of Akt phosphorylation in Panc-1 (Akt phosphorylation) | inhibition (IL6) [%] | inhibition at 10 µM (TNF-alpha) [%]
1 | CCOc1ccnc(Nc2nc(-c3nccn3C)nn3cc(-c4ccn(C5CC5)n4)c(C)c23)c1 [Compound 141, 6-(1-Cyclopropyl-1H-pyrazol-3-yl)-N-(4-ethoxypyridin-2-yl)-5-methyl-2-(1-methyl-1H-imidazol-2-yl)pyrrolo[2,1-f][1,2,4]triazin-4-amine] | B (26-49% inhibition) | A (1-25% inhibition) | 25 to 49 | 0
2 | CO[C@H]1CC[C@@H](Nc2nc(-c3nccn3C)nn3cc(-c4cccnc4)c(C)c23)C1 (racemic) [Compound 155, rac N-((1R,3S)-3-methoxy-cyclopentyl)-5-methyl-2-(1-methyl-1H-imidazol-2-yl)-6-(pyridin-3-yl)pyrrolo[2,1-f][1,2,4]triazin-4-amine] | A* (1-25% activation) | A (1-25% inhibition) | 25 to 49 | 0
3 | Cc1c(-c2ccn(C3CC3)n2)cn2nc(-c3nccn3C)nc(Nc3cc(OCCN(C)C)ccn3)c12 [Compound 147, 6-(1-Cyclopropyl-1H-pyrazol-3-yl)-N-(4-(2-(dimethylamino)ethoxy)pyridin-2-yl)-5-methyl-2-(1-methyl-1H-imidazol-2-yl)pyrrolo[2,1-f][1,2,4]triazin-4-amine] | A* (1-25% activation) | A* (1-25% activation) | 0 | 1 to 24
4 | Cc1c(-c2ccn(C3CC3)n2)cn2nc(-c3nccn3C)nc(Nc3cc(O)ccn3)c12 [Compound 150, 2-((6-(1-Cyclopropyl-1H-pyrazol-3-yl)-5-methyl-2-(1-methyl-1H-imidazol-2-yl)pyrrolo[2,1-f][1,2,4]triazin-4-yl)amino)pyridin-4-ol] | A (1-25% inhibition) | B* (26-49% activation) | 1 to 24 | 0
5 | COc1ccnc(Nc2nc(-c3nccn3C)nn3cc(-c4ccn(C)n4)c(C)c23)c1 [Compound 102, N-(4-Methoxypyridin-2-yl)-5-methyl-2-(1-methyl-1H-imidazol-2-yl)-6-(1-methyl-1H-pyrazol-3-yl)pyrrolo[2,1-f][1,2,4]triazin-4-amine] | A* (1-25% activation) | D* (85-100% activation) | 75 to 100 | 25 to 49
6 | COc1cccnc1Nc1nc(-c2nccn2C)nn2cc(-c3ccn(C)n3)c(C)c12 [Compound 112, N-(3-Methoxypyridin-2-yl)-5-methyl-2-(1-methyl-1H-imidazol-2-yl)-6-(1-methyl-1H-pyrazol-3-yl)pyrrolo[2,1-f][1,2,4]triazin-4-amine] | A* (1-25% activation) | D* (85-100% activation) | 25 to 49 | 0
7 | Cc1c(-c2ccn(C3CC3)n2)cn2nc(-c3nccn3C)nc(Nc3cc(OC4CC4)ccn3)c12 [Compound 142, N-(4-Cyclopropoxypyridin-2-yl)-6-(1-cyclopropyl-1H-pyrazol-3-yl)-5-methyl-2-(1-methyl-1H-imidazol-2-yl)pyrrolo[2,1-f][1,2,4]triazin-4-amine] | C (50-84% inhibition) | A (1-25% inhibition) | 25 to 49 | 0
8 | Cc1c(-c2ccn(C)n2)cn2nc(-c3nccn3C)nc(Nc3cc4n(n3)CCO4)c12 [Compound 124, N-(5-Methyl-2-(1-methyl-1H-imidazol-2-yl)-6-(1-methyl-1H-pyrazol-3-yl)pyrrolo[2,1-f][1,2,4]triazin-4-yl)-2,3-dihydropyrazolo[5,1-b]oxazol-6-amine] | C* (46-84% activation) | C* (46-84% activation) | 25 to 49 | 1 to 24
9 | Cc1ccnc(Nc2nc(-c3nccn3C)nn3cc(-c4ccn(C5CC5)n4)c(C)c23)c1 [Compound 144, 6-(1-Cyclopropyl-1H-pyrazol-3-yl)-5-methyl-2-(1-methyl-1H-imidazol-2-yl)-N-(4-methylpyridin-2-yl)pyrrolo[2,1-f][1,2,4]triazin-4-amine] | A (1-25% inhibition) | B* (26-49% activation) | 25 to 49 | 1 to 24
10 | CO[C@H]1C[C@H](Nc2nc(-c3nccn3C)nn3cc(-c4ccncc4)c(C)c23)C1 [Compound 159, N-((1r,3r)-3-Methoxycyclobutyl)-5-methyl-2-(1-methyl-1H-imidazol-2-yl)-6-(pyridin-4-yl)pyrrolo[2,1-f][1,2,4]triazin-4-amine] | A (1-25% inhibition) | B (26-49% inhibition) | 1 to 24 | 0
11 | COc1ccnc(Nc2nc(-c3nccn3C)nn3cc(-c4cccnc4)c(-c4ccccn4)c23)c1 [Compound 166, N-(4-Methoxypyridin-2-yl)-2-(1-methyl-1H-imidazol-2-yl)-5-(pyridin-2-yl)-6-(pyridin-3-yl)pyrrolo[2,1-f][1,2,4]triazin-4-amine] | B* (26-49% activation) | D* (85-100% activation) | 75 to 100 | 75 to 100
12 | COc1ccnc(Nc2nc(-c3nccn3C)nn3cc(-c4cccnc4)c(C)c23)c1 [Compound 157, N-(4-Methoxy-pyridin-2-yl)-5-methyl-2-(1-methyl-1H-imidazol-2-yl)-6-(pyridin-3-yl)pyrrolo[2,1-f][1,2,4]triazin-4-amine] | C* (46-84% activation) | D* (85-100% activation) | 1 to 24 | 0
13 | Cc1c(-c2ccn(C3CC3)n2)cn2nc(-c3nccn3C)nc(Nc3cc(OCCO)ccn3)c12 [Compound 146, 2-((2-((6-(1-Cyclopropyl-1H-pyrazol-3-yl)-5-methyl-2-(1-methyl-1H-imidazol-2-yl)pyrrolo[2,1-f][1,2,4]triazin-4-yl)amino)pyridin-4-yl)oxy)ethan-1-ol] | D* (85-100% activation) | D* (85-100% activation) | 0 | 1 to 24
